{
  "source": "patent US8008355B2",
  "about": "“Endosomolytic poly(vinyl ether) polymers” (Roche Madison Inc., priority 2002, dated 2011)",
  "key": {"[1]": {"conditions": "amines with electron withdrawing groups; cited from earlier work"}, "[2]": {"assay": "Rate of cleavage of linkages", "format": "physicochemical"}},
  "data": [
    {"smiles": "CCN(CC)CCC#N", "note": "[(C2H5)2N(CH2)2CN]", "values": [
      {"measurement": "pKa", "setting": "[1]", "value": 7.65}
    ]},
    {"smiles": "CCN(CCC#N)CCC#N", "note": "[C2H5N(CH2CH2CN)2]", "values": [
      {"measurement": "pKa", "setting": "[1]", "value": 4.55}
    ]},
    {"smiles": "CC1CCC(=N)S1", "note": "(stereo not shown) [Linkage X, 5-methyl-2-iminothiolane]", "values": [
      {"measurement": "rate of cleavage, slower than an SMTP linkage (Compound XI)", "setting": "[2]", "value": 4, "unit": "×"}
    ]},
    {"smiles": "N#CCN", "note": "[Polymer H2NCH2CN, H2NCH2CN]", "values": [
      {"measurement": "pKa", "setting": "[1]", "value": 5.34}
    ]}
  ]
}
